Measured values: ChEMBL document CHEMBL1201862, “PubChem BioAssay data set” (2004)
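Assay format: 96-well plates, 48-hour exposure. The concentration for 50% growth inhibition is given as GI50.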 Activity calls are given as the source filed them. Cut-off read from the data, not from the text of the source: active = GI50 up to about 1.1 µM and inactive = higher.

How the values were obtained:
Assay in all cases: growth of human tumour cells (NCI), 48 h
[1] = system: DMS-114
[2] = system: HCC 2998
[3] = system: HCT-116
[4] = system: HT-29
[5] = system: K562
[6] = system: KM12
[7] = system: MDA-MB-435
[8] = system: NCI-H460
[9] = system: NCI-H522
[10] = system: NCI/ADR-RES
[11] = system: OVCAR-4
[12] = system: RPMI-8226
[13] = system: RXF 393
[14] = system: SK-MEL-5
[15] = system: SW-620
[16] = system: TK-10
[17] = system: UACC-62
[18] = system: UO-31
[19] = system: BT-549
[20] = system: MOLT-4

Measured: GI50

Cc1ccc2oc(=O)c3c(O)c4cccc(OC5OC(C)C6O[C@@H](c7ccccc7)OC6C5OC5OC(C)C(O)C(O)C5O)c4c4oc(=O)c1c2c34 (stereo partly drawn)
inactive: [10] 3.66 µM | [18] 1.14 µM
active: [1] 0.262 µM | [2] 0.0442 µM | [3] < 0.0171 µM | [4] 0.0472 µM | [5] 0.0404 µM | [6] 0.0785 µM | [7] 0.27 µM | [8] < 0.0316 µM | [9] 0.0574 µM | [11] 0.32 µM | [12] 0.0366 µM | [13] 0.187 µM | [14] 0.0509 µM | [15] 0.0486 µM | [16] 0.392 µM | [17] 0.0449 µM

CN(C)CC1CC/C(=C\c2ccc3c(c2)OCO3)C1=O (stereo not drawn)
inactive: [19] 11.2 µM | [1] 18.4 µM | [2] 22.1 µM | [3] 6.75 µM | [4] 14.5 µM | [5] 2.83 µM | [6] 6.79 µM | [7] 1.93 µM | [20] 2.98 µM | [8] 19.5 µM | [9] 3.89 µM | [10] 2.79 µM | [11] 9.29 µM | [12] 1.85 µM | [13] 15.7 µM | [14] 14.2 µM | [15] 6.4 µM | [16] 11.1 µM | [17] 16.7 µM | [18] 10.6 µM
